The values that follow come from a melting point compilation (Tetko et al.).

`Cc1cccn2cc(COc3ccc(F)cc3Cl)nc12` came in with a melting point of 128 to 130 °C.

As to `CC(=O)Nc1ccc(C(=O)C(C)Cl)cc1` (stereo not drawn), the melting point lay in the range of 190 to 193 °C.

In the case of `CCc1nc2cc(N)ccc2o1`, the melting point fell in the range of 69 to 71 °C.

Compound `O=c1[nH]c(-c2cccnc2)no1` came in with a melting point of 234 to 236 °C.

The compound `COc1ccc2c(c1)OCC(C#N)=C2` showed a melting point of 93 to 95 °C.

`Nc1cc(C(=O)O)cnc1Cl`: the melting point fell in the range of 199 to 201 °C.

In turn, `Nc1cc(CC2CCCCC2)n[nH]1` showed a melting point of 72 to 74 °C.

`O=C(Nc1ccccc1Cl)OCC(F)(F)F` displayed a melting point of 44 to 46 °C.

For `Cc1nn(C)c(Cl)c1Cn1cc(Br)cn1`, the melting point is 52 to 54 °C.

The compound `COc1ccccc1NC(=O)c1ccc(N)cc1` came in with a melting point of 162 to 164 °C.

Take `O=C(O)CC(c1ccccc1)N1CCOC1=O` (stereo not drawn): the melting point was 123 to 125 °C.

In the case of `CS(=O)(=O)c1ccccc1CC(=O)O`, the melting point lay within 154 to 156 °C.

The compound `COc1ccc(Oc2ccc(Cl)cc2N)cc1` registered a melting point of 47 to 49 °C.

`N#CCC(=O)c1cccc([N+](=O)[O-])c1` showed a melting point of 149 to 151 °C.

Take `O=C(O)c1ccc(=O)n(Cc2ccccc2Cl)c1`: the melting point lay within 182 to 184 °C.

As to `N#Cc1ccc(Cl)cc1S(=O)(=O)Cl`, the melting point is 79 to 81 °C.

On to `CCOc1cccc2c1C(=O)NC2=O`, for which the melting point was in the range of 149 to 151 °C.

The compound `OC(c1ccc(Cl)cc1)c1cccnc1` (stereo not drawn) registered a melting point of 106 to 108 °C.

As to `CC(C)C(C(=O)O)c1cccc(Cl)c1` (stereo not drawn), the melting point lay in the range of 82 to 84 °C.

As to `Cc1[nH]ncc1Cl`, the melting point fell in the range of 64 to 66 °C.

In turn, `N#C/C(=C/c1c[nH]nc1-c1cccc(Br)c1)C(=O)O` registered a melting point of 258 to 260 °C.

In the case of `CC(C)NS(=O)(=O)c1ccc(/C=C/C(=O)O)cc1`, the melting point was 223 to 225 °C.

The compound `CC(=O)NC(C)(C)C(=O)O` showed a melting point of 190 to 192 °C.

Compound `N#CCN1CCSCC1` showed a melting point of 51 to 53 °C.

With `CC(C)(C#N)C(=O)O`, the melting point lay within 54 to 56 °C.

`O=C(O)c1cccc(OCC(F)(F)F)n1` registered a melting point of 138 to 140 °C.

Turning to `O=C(O)c1ccnc(OC2CCCCC2)c1`, the melting point fell in the range of 123 to 125 °C.

For `O=C(O)c1cc(-n2ccnc2)ccn1`, the melting point was in the range of 194 to 196 °C.

`COc1ccc2[nH]cc(C(C)=O)c2c1`: the melting point was 206 to 208 °C.

On to `Cc1cccc(CC(N)=S)c1`, for which the melting point lay in the range of 75 to 77 °C.

Consider `N#Cc1nnc2ccccc2c1Cl`, for which the melting point is 179 to 181 °C.

As to `CCOc1ccc([N+](=O)[O-])cc1CCl`, the melting point was 68 to 70 °C.

`Nc1ccccc1C(O)C(F)(F)F` (stereo not drawn) returned a melting point of 119 to 121 °C.

Regarding `O=C1CCN(C2CC2)CCN1`, the melting point fell in the range of 98 to 100 °C.

Compound `Cc1cc(N)nc(Cl)n1` came in with a melting point of 220 to 222 °C.

`CCOc1cc2c(cc1CBr)OC(C)C2` (stereo not drawn) gave a melting point of 69 to 71 °C.

As for `O=C(CCl)NC(=O)NCCC1=CCCCC1`, the melting point lay in the range of 200 to 202 °C.

In turn, `Cc1cc(-n2c(C)cc(C(=O)O)c2C)no1` had a melting point of 175 to 180 °C.

`OCCNc1ncccn1` showed a melting point of 76 to 78 °C.

`CC1Nc2cc(=O)[nH]n2C(C)C1CC(=O)O` (stereo not drawn) showed a melting point of 235 to 237 °C.

Regarding `CC(C)N(C)S(=O)(=O)c1ccc(N)cc1`, the melting point was 119 to 121 °C.

In the case of `O=CN1CCN(S(=O)(=O)Cl)CC1`, the melting point lay within 103 to 105 °C.

`CS(=O)(=O)N1CCCC(C(=O)O)C1` (stereo not drawn) returned a melting point of 107 to 109 °C.

For the compound `Nc1ccc(Oc2cccc(Cl)c2)cc1`, the melting point lay in the range of 41 to 43 °C.

Turning to `NCCCN1CCC(C(N)=O)CC1`, the melting point is 94 to 96 °C.

For the compound `COC(=O)c1cc(OC)c(OC)c(OC)c1N`, the melting point was 44 to 45 °C.

Turning to `O=S(=O)(c1ccc(OCCBr)cc1)N1CCOCC1`, the melting point lay within 137 to 138 °C.

The compound `C1CCc2nnc(C3CCCN3)n2CC1` (stereo not drawn) yielded a melting point of 91 to 93 °C.

`NC(=O)Cn1ccc(N)n1` displayed a melting point of 112 to 114 °C.

In turn, `CC(C)CNS(=O)(=O)c1cc(C(=O)O)c(Cl)cc1Cl` yielded a melting point of 179 to 181 °C.

For `Cc1ccc(-n2c(C)c(Br)c3c2CCCC3=O)cc1`, the melting point was 139 to 141 °C.

In turn, `CC(C)(C)c1n[nH]cc1C=O` yielded a melting point of 131 to 133 °C.

The compound `CCCc1cc(=O)[nH]c(-c2ccccc2)n1` came in with a melting point of 149 to 151 °C.

As to `Cc1noc(N)c1S(N)(=O)=O`, the melting point was in the range of 131 to 133 °C.

As for `COc1cc(C(N)=S)ccn1`, the melting point was 117 to 119 °C.

Regarding `NS(=O)(=O)c1cc(C(=O)O)cc([N+](=O)[O-])c1Cl`, the melting point is 143 to 147 °C.

The compound `Nc1cccc(S(=O)(=O)N2CCNC(=O)C2)c1` returned a melting point of 189 to 191 °C.

In turn, `Cc1oc(-c2ccccc2F)nc1C(=O)O` showed a melting point of 174 to 176 °C.

With `O=C(O)COc1ccc(S(=O)(=O)Cl)cc1F`, the melting point was 131 to 133 °C.

For `Cc1cc(NN)nc2c(C)cccc12`, the melting point fell in the range of 168 to 170 °C.

For the compound `Cn1c(=O)oc(=O)c2cc([N+](=O)[O-])ccc21`, the melting point lay within 180 to 182 °C.

`Cc1ccc([N+](=O)[O-])cc1S(=O)(=O)N1CCC(C(=O)O)CC1` displayed a melting point of 107 to 109 °C.

`C#Cc1ccc(C(=O)O)nc1` came in with a melting point of 181 to 183 °C.

For the compound `CC(O)c1c(Cl)nc2sccn12` (stereo not drawn), the melting point is 107 to 109 °C.

Take `Nc1nonc1C(=O)N1CCOCC1`: the melting point lay in the range of 136 to 138 °C.

Turning to `N#Cc1c([N+](=O)[O-])cccc1S(=O)(=O)Cl`, the melting point is 89 to 91 °C.

Consider `CS(=O)(=O)N1CCC(=O)CC1`, for which the melting point fell in the range of 97 to 99 °C.

`CS(=O)(=O)NCCc1ccc(C(=O)O)cc1` came in with a melting point of 171 to 173 °C.

In the case of `COc1cc2c(c(OC)c1OC)CCNCC2`, the melting point lay within 60 to 62 °C.

`O=C(O)c1cc2c(s1)CCOC2` had a melting point of 148 to 150 °C.

Turning to `COc1ccc(Br)cc1C(N)CO` (stereo not drawn), the melting point fell in the range of 99 to 101 °C.

On to `CCc1nc(C(=O)O)nn1-c1ccccc1`, for which the melting point lay within 145 to 147 °C.

`Cc1cnc(=S)[nH]c1`: the melting point fell in the range of 239 to 241 °C.

Compound `OCc1cn(-c2cccc(Cl)c2Cl)nn1` had a melting point of 105 to 107 °C.

Consider `O=C(O)CCc1nc2ccccc2oc1=O`, for which the melting point lay within 167 to 169 °C.

In turn, `N#Cc1c(Cl)nc(Cl)c(Cl)c1Cl` returned a melting point of 148 to 150 °C.

For `C=CC(=O)Nc1cccc(C#N)c1`, the melting point was in the range of 117 to 119 °C.

For `O=C1C=CC(=O)N1C1CC1`, the melting point lay in the range of 54 to 56 °C.

Compound `Nc1ccc(I)cc1Br` gave a melting point of 83 to 85 °C.

Compound `CSCCC(NS(=O)(=O)c1ccccc1)C(=O)O` (stereo not drawn) yielded a melting point of 103 to 105 °C.

Regarding `NC(=O)CNC(=O)c1cccc(O)c1`, the melting point lay within 179 to 181 °C.

Turning to `N#CCC(=O)NCCN1CCOCC1`, the melting point fell in the range of 68 to 75 °C.

Regarding `O=Cc1cccc(Cl)c1O`, the melting point is 52 to 54 °C.

As to `CC(=O)N(c1ccc(C)cc1)c1nc(C=O)cs1`, the melting point was in the range of 166 to 168 °C.

Regarding `CCCC1CCc2[nH]c(=O)c(C#N)cc2C1` (stereo not drawn), the melting point was in the range of 233 to 235 °C.

`N#Cc1cc([N+](=O)[O-])ccc1S(=O)(=O)Cl` gave a melting point of 99 to 101 °C.

As to `Cc1cc(C)cc(OCC(=O)N2Cc3ccccc3CC2C(=O)O)c1` (stereo not drawn), the melting point was 161 to 165 °C.

Turning to `O=C(O)c1occc1CS(=O)(=O)c1ccc(Br)cc1`, the melting point is 211 to 213 °C.

On to `Nc1cc2c(cc1F)CCC(=O)N2`, for which the melting point was 174 to 176 °C.

As for `Nc1ccc(Cl)cc1C(=O)NC1CC1`, the melting point fell in the range of 147 to 149 °C.

Turning to `CCOc1ccc(C2(C(=O)O)CC2)cc1`, the melting point is 118 to 120 °C.

In the case of `O=S(=O)(Nc1nc2ccccc2nc1Cl)c1ccccc1`, the melting point was in the range of 172 to 174 °C.

As for `O=C(O)CCS(=O)(=O)C(F)(F)F`, the melting point was in the range of 104 to 106 °C.

Compound `Cc1nc2ccccc2n1Cc1cc(N)ccc1Cl` showed a melting point of 191 to 193 °C.

In turn, `O=[N+]([O-])c1ccc(Cl)c2c1CCCN2` showed a melting point of 93 to 95 °C.

`O=c1cc(O)c2ccccc2o1` gave a melting point of 211 to 215 °C.

With `CC(Oc1ccc(Cl)cc1[N+](=O)[O-])C(=O)O` (stereo not drawn), the melting point fell in the range of 119 to 121 °C.

The compound `NC(=O)c1csc(C(=O)CCl)c1` gave a melting point of 175 to 177 °C.

Compound `CCCC(=O)c1cccc([N+](=O)[O-])c1` yielded a melting point of 59 to 63 °C.

In the case of `C#Cc1cccc(NC(=O)CBr)c1`, the melting point lay in the range of 118 to 120 °C.

As for `O=C(O)CCNS(=O)(=O)c1cccs1`, the melting point was in the range of 143 to 145 °C.

`O=C(O)Cn1cccnc1=O` returned a melting point of 211 to 213 °C.

`CC(=O)c1ccc(NS(=O)(=O)c2ccc(C)cc2)cc1`: the melting point fell in the range of 170 to 172 °C.

In the case of `Nc1cc2ccccc2c(=O)[nH]1`, the melting point is 319 to 321 °C.

The compound `CC(Cl)C(=O)NC1CCN(Cc2ccccc2)CC1` (stereo not drawn) had a melting point of 119 to 121 °C.

The compound `CS(=O)(=O)c1cccc(C(=O)Cl)c1` returned a melting point of 85 to 87 °C.

Turning to `O=C(O)CCn1cc(Cl)cn1`, the melting point lay within 91 to 93 °C.

`COc1ccc(CNc2nccs2)c(OC)c1`: the melting point was 112 to 114 °C.

As to `COc1cccc(-n2cncn2)c1`, the melting point is 95 to 97 °C.

Consider `c1c[nH]c(CN2CCNCC2)n1`, for which the melting point was in the range of 153 to 155 °C.

`O=C(CO)N1CCOCC1` returned a melting point of 77 to 79 °C.

`N#Cc1cc(S(=O)(=O)Cl)ccc1Cl` displayed a melting point of 49 to 51 °C.

On to `Cc1ccccc1Cc1nn[nH]n1`, for which the melting point lay within 156 to 158 °C.

As for `COCCCNC(=O)CC#N`, the melting point fell in the range of 63 to 65 °C.

For the compound `O=C(O)c1[nH]c2ccc(F)cc2c1Cl`, the melting point was in the range of 279 to 281 °C.

Turning to `Cc1ccc(-n2c(C)c[nH]c2=O)cc1`, the melting point lay within 195 to 197 °C.

On to `O=C(CN1CCNCC1)Nc1ccc(OC(F)(F)F)cc1`, for which the melting point lay in the range of 86 to 88 °C.

`CS(=O)(=O)CCC(NC(=O)c1ccccc1Cl)C(=O)O` (stereo not drawn) yielded a melting point of 159 to 161 °C.

For the compound `Cc1ccc(S(=O)(=O)C2(C(=O)O)CCCC2)cc1`, the melting point lay within 131 to 133 °C.

On to `CCOc1c(Br)cc(C=O)cc1OC`, for which the melting point lay within 84 to 86 °C.

`O=S(=O)(Cl)c1ccccc1-c1ccno1` showed a melting point of 74 to 76 °C.

In turn, `COc1cc(C)c(S(=O)(=O)Cl)cc1OC` came in with a melting point of 73 to 75 °C.

On to `Cn1nnnc1-c1cccc(N)c1`, for which the melting point was 147 to 149 °C.
